Values of other authors in patent publication US10694745B2, “Method for controlling rust” (UPL LIMITED, priority 2013, dated 2020).

Tests used:
soybean = conditions: in vivo
Phakopsora pachyrhizi = conditions: single fungicide

c1ccc2[nH]c(-c3cscn3)nc2c1 [Thiabendazole]
phytotoxicity (soybean): phytotoxic

O=C(Nc1ccccc1-c1ccc(Cl)cc1)c1cccnc1Cl [Boscalid]
control of soybean rust (Phakopsora pachyrhizi): moderate control

CO/C=C(/C(=O)OC)c1ccccc1Oc1cc(Oc2ccccc2C#N)ncn1 [Azoxystrobin]
control of soybean rust (Phakopsora pachyrhizi): good control
